This is an account of results in US20140336187A1, “METHODS FOR TREATING LEISHMANIASIS” (HOWARD UNIVERSITY, priority 2011, published 2014).

SMILES strings stand for the structures. “And” between values parts separate entries of the source, which are not always exact repeats. Equal entries are not always repeated.

The test system of series [1] is L. donovani promastigotes. Briefly: Antileishmanial activity on L. donovani promastigotes (resazurin cell viability assay). It counts as cell-based, Leishmania donovani. The note with it: for IC50: L. donovani promastigotes, resazurin assay, 0.03 to 44 μM, means ± S.E. of three experiments, read-out: IC50 (μM) Promastigotes; for SI Values Promastigotes: SI = IC50 (mouse fibroblast) ÷ IC50 (promastigotes). Here is the method:
Approximately 5×10^5 promastigotes/ml of L. donovani Khartum strain were inoculated into Yeager's Liver infusion tryptose (YLIT) medium or Brain Heart Infusion (BHI) broth (Difco), supplemented with glucose (2.5 mg/ml), 50 U/ml Pen-Strep and 0.005 mM Hemin at 25-26° C. and subcultured bi-weekly, Mikus et al., Parasitol Int., 48(3):265-9 (2000) (Mikus and Steverding, 2000).
(§1) The Leishmanicidal properties of fifteen naphthoquinone compounds (FIG. 1) on L. donovani promastigotes proliferation were assessed by the resazurin cell viability assay. Promastigotes from axenic culture were harvested during the exponential phase of growth (at least 5-day old culture), incubated at a concentration of 2×10^5 cells/200 μl with and without dilutions of compounds in 96-well microtitre plates. Dilutions of compounds covering 0.03 μM to 44 μM were prepared. […] 20 μl Alamar Blue (12.5 mg resazurin dissolved in 100 ml distilled water (Sigma #R7017)) (Mikes and Steverding, 2000) were added to each well and plates were incubated for another 2 hrs. […] Decrease in fluorescence (inhibition), were expressed as percentage of the fluorescence of control cultures and were plotted against the concentrations of compounds. The IC50 values were calculated from the sigmoidal inhibition curves.
Background: Alamar Blue is a resazurin reagent that responds to reducing activity.

Another series has as its system L. donovani amastigotes. The series is described as follows: Antileishmanial activity on L. donovani amastigotes (resazurin assay). The following applies: for IC50: Leishmania donovani, L. donovani amastigotes, 48 hrs exposure, resazurin assay, means ± S.E., read-out: IC50 (μM) Amastigotes; for SI Values Amastigotes: SI = IC50 (mouse fibroblast) ÷ IC50 (amastigotes). Type of series: cell-based, Leishmania donovani. As for the experimental part:
Amastigotes were grown in MAA/20 medium (Amastigote medium consisted of: M199 medium supplemented with 0.5% Tryptone broth, 0.01 mM bathocuproinedisulfonic acid, 0.108 mM L-Cysteine, 15 mM D-glucose, 0.685 mM L-glutamine, and 0.025 mM Hemin and 20% fetal calf serum (FCS) at a pH of 5.5).
Amastigotes were plated at a concentration of 2×10^5 cells/[…] 24 hrs before treatment with various compounds. Amastigotes were treated with dilutions of compounds in 96-well microtitre plates. Dilutions of compounds ranging from 0.03 μM to 44 μM were prepared and added to amastigotes. Amastigotes were exposed to compounds for 48 hrs and were incubated at 37° C. […] After the incubation period, 20 μl Alamar Blue (12.5 mg resazurin dissolved in 100 ml distilled water) (Mikes and Steverding, 2000) were added to each well and plates were incubated for another 2 hrs. […] Decrease of fluorescence (inhibition) was expressed as percentage of the fluorescence of control cultures and was plotted against the concentrations of compounds. The IC50 values were calculated from the sigmoidal inhibition curves. Amphotericin B was used as a reference drug.

In series [2] the test system is L. donovani promastigotes. Briefly: Dose and time-dependent inhibitory effect on L. donovani promastigotes (2, 4, 6, 24 hours exposure). The note with it: Leishmania donovani, promastigotes, means ± S.E. Type of series: cell-based, Leishmania donovani. Here is the method:
as §1
A time and dose-dependent inhibitory effect of all 15 imido-substituted naphthoquinone compounds was assessed on their activity on promastigotes of L. donovani. Promastigotes were plated in 96-well plates and incubated in different concentrations of each compound (0.03 to 44 μM), incubated for two hours and viabilities assayed by the resazurin assay. A two hour exposure was assessed by calculation of IC50 values of each compound. Values are means±S.E. (Standard Error).
A time and dose-dependent inhibitory effect of all 15 imido-substituted naphthoquinone compounds was assessed on their activity on promastigotes of L. donovani. Promastigotes were plated in 96-well plates and incubated in different concentrations of each compound (0.03 to 44 μM), incubated for four hours and cell viabilities assayed by the resazurin assay. A four hour exposure was assessed by calculation of IC50 values of each compound. Values are means±S.E. (Standard Error).
Promastigotes were plated in 96-well plates and incubated in different concentrations of each compound (0.03 to 44 μM), incubated for six hours and cell viabilities assayed by the resazurin assay. A six hour exposure was assessed by calculation of IC50 values of each compound. Values are means±S.E. (Standard error).
A time and dose-dependent inhibitory effect of all 15 imido-substituted naphthoquinone compounds was assessed on their activity on promastigotes of L. donovani. Promastigotes were plated in 96-well plates and incubated in different concentrations of each compound (0.03 to 44 μM), incubated for twenty four hours and cell viabilities assayed by the resazurin assay. A twenty four hour exposure was assessed by calculation of IC50 values of each compound. Values are means±S.E. (Standard Error).

The subject of series [3] is NIH 3T3 BALB/c mouse fibroblast cell line. Briefly: Cytotoxic assessment on NIH 3T3 BALB/c mouse fibroblasts (resazurin assay). The note with it: read-out: IC50 (μM) Fibroblasts; NIH 3T3 BALB/c mouse fibroblasts; 48 hrs; resazurin assay; means ± S.E.
Experimental: Fibroblasts cells (4×10^4 cells/nil and adding 100 μl per well) were incubated with different concentrations of the naphthoquinone compounds (FIGS. 1) (3, 7, 13, 29, 33, and 44 μM) for 48 hrs after which viability of live fibroblast cells was determined by the Resazurin Method using a microplate reader (Bio-Tek Instruments EL311).
NIH 3T3 mouse fibroblasts were maintained in Roswell Park Memorial Institute (RPMI) medium supplemented with 10% Fetal calf serum, 50 units/ml penicillin, 50 units/ml streptomycin B in a humidified incubator at 37° C. in the presence of 5% CO2 (Scala et al., 2010).
Assays were performed to assess the cytotoxicity of these compounds in 96-well microtiter plates, with each well containing 100 μl of RPMI medium supplemented with 10% bovine calf scrum with 50 U/ml Pen-Strep. The cells were plated at a concentration of 4×10^3 cells/well (4×10^4 cells/ml). Fibroblast cells were then incubated with compounds for 48 hrs and inspected under an inverted microscope to assure growth of the controls and sterile conditions. 10 μl of resazurin solution (12.5 mg resazurin dissolved in 100 nil distilled water) were added to each well and the plates were incubated for another 2 hrs. The plates were read with a microplate reader at 570 nm. Experiments were done at least 3 times in triplicates (Scala et al., 2010).
Cell viability was determined using Resazurin Assay. The IC50 values were calculated and expressed as means±S.E (standard error).
The mark [4] stands for this setting: read-out: Antileishmanial Activity IC50 (μM) 2 hours, 2 hours exposure.
The mark [5] stands for this setting: read-out: Antileishmanial Activity IC50 (μM) 4 hours, 4 hours exposure.
Where [6] appears, read: 6 hours exposure, read-out: Antileishmanial Activity IC50 (μM) 6 hours.
Setting [7] is: 24 hours exposure, read-out: Antileishmanial Activity IC50 (μM) 24 hours.

By IC50 is commonly meant the midpoint of a concentration-inhibition curve. Broadly, the melting point is the temperature, or range, at which the solid turns liquid. `O=C1C(Cl)=C(N(C(=O)c2ccc(Cl)cc2)C(=O)c2ccc(Cl)cc2)C(=O)c2ccccc21` [IMDNQ1, 4-Chloro-N-(4-chlorobenzoyl)-N-(3-chloro-1,4-dioxo-1,4-dihydronaphthalen-2-yl)-benzamide]: the melting point was 212 to 213 °C. In addition, the IC50 in series [1] (Leishmania donovani) was 1.84 ± 0.9 µM. In addition, the “SI Values Promastigotes” value in series [1] is 2.23±1.09 and 2.23. For the same compound, in the series on L. donovani amastigotes, the IC50 worked out at 11.8 ± 9.7 µM; the “SI Values Amastigotes” value was 0.35±0.42 and 0.35. Also, the IC50 in series [2] (setting [4]) came out at 5.53 ± 0.3 µM. In series [2] (setting [5]), the 50% inhibitory concentration (IC50) is 1100 ± 50.3 µM. Besides, the IC50 in series [2] (setting [6]) was found to be 19.2 ± 18.4 µM. Moreover, in series [2] (setting [7]), the IC50 was found to be 5.28 ± 1.8 µM. For the same compound, the concentration for half-maximal inhibition (IC50) in series [3] is 4.1 ± 3.5 µM.
Turning to `O=C1C(Cl)=C(N(C(=O)c2ccc(F)cc2)C(=O)c2ccc(F)cc2)C(=O)c2ccccc21` [IMDNQ3, N-(3-Chloro-1,4-dioxo-1,4-dihydronaphthalen-2-yl)-4-fluoro-N-(4-fluorobenzoyl)-benzamide], the melting point is 284 to 286 °C. Further, the IC50 in series [1] (Leishmania donovani) was 10.8 µM. For the same compound, the “SI Values Promastigotes” value in series [1] is 2.30±1.05 and 2.30. For the same compound, in the series with L. donovani amastigotes, the IC50 came out at 4.1 µM; the “SI Values Amastigotes” value was 6.06±1.77 and 6.06. The concentration for half-maximal inhibition (IC50) in series [2] (setting [4]) came out at 11 ± 12.9 µM. Moreover, in series [2] (setting [5]), the IC50 turned out to be 41.35 ± 0.21 µM. For the same compound, the IC50 in series [2] (setting [6]) was found to be 2.32 ± 1.9 µM. Moreover, the half-inhibitory concentration (IC50) in series [2] (setting [7]) was found to be 3.23 ± 5.3 µM. Besides, the IC50 in series [3] was 24.8 µM.
In the case of `O=C1C(Br)=C(N(C(=O)c2ccccc2Cl)C(=O)c2ccccc2Cl)C(=O)c2ccccc21` [IMDNQ5, N-(3-Bromo-1,4-dioxo-1,4-dihydronaphthalen-2-yl)-2-chloro-N-(2-chlorobenzoyl)-benzamide], the melting point lay within 232 to 234 °C. In addition, in series [1] (Leishmania donovani), the IC50 was 31.3 µM. The “SI Values Promastigotes” value in series [1] was 0.15 and 0.15±0.3. Besides, in the series on L. donovani amastigotes, the half-inhibitory concentration (IC50) was 4.67 µM; the “SI Values Amastigotes” value is 1.01±0.21 and 1.01. Also, the IC50 in series [2] (setting [4]) is 19 ± 1.5 µM. In series [2] (setting [5]), the IC50 was found to be 0.57 µM. For the same compound, the IC50 in series [2] (setting [6]) was determined as 1.66 ± 0.5 µM. The IC50 in series [2] (setting [7]) turned out to be 5.85 ± 2.2 µM. Moreover, the IC50 in series [3] came out at 4.7 µM.
Compound `COc1ccc(C(=O)N(C(=O)c2ccc(OC)cc2)C2=C(Cl)C(=O)c3ccccc3C2=O)cc1` [IMDNQ9, 2-bis-(4-methoxybenzoyl)amino-3-chloro-1,4-naphthoquinone] had a melting point of 283 to 287 °C. Besides, the half-inhibitory concentration (IC50) in series [1] (Leishmania donovani) is 5.64 ± 0.9 µM. In addition, the “SI Values Promastigotes” value in series [1] is 0.60±0.08 and 0.60. Besides, in the series with L. donovani amastigotes, the IC50 is 4.67 ± 0.8 µM; the “SI Values Amastigotes” value is 0.73±0.13 and 0.73. Besides, the IC50 in series [2] (setting [4]) was 77.3 ± 119 µM. Further, the IC50 in series [2] (setting [5]) was found to be 23.3 ± 9.2 µM. Also, the IC50 in series [2] (setting [6]) is 123 ± 35.1 µM. Also, the concentration for half-maximal inhibition (IC50) in series [2] (setting [7]) was 7.23 ± 0.7 µM. In series [3], the IC50 was determined as 3.41 ± 1.1 µM.
`COc1cc(C(=O)N(C(=O)c2cc(OC)c(OC)c(OC)c2)C2=C(Cl)C(=O)c3ccccc3C2=O)cc(OC)c1OC` [IMDNQ11, 2-bis-(3,4,5-trimethoxybenzoyl)amino-3-chloro-1,4-naphthoquinone] showed a melting point of 171 to 172 °C. Also, in series [1], the IC50 is 11.85 ± 0.001 µM; the “SI Values Promastigotes” value was 0.28±0.01 and 0.28. Further, in series [1] (Leishmania donovani), the IC50 came to 22.9 ± 0.9 µM. Moreover, the IC50 in the series with L. donovani amastigotes turned out to be 27.3 µM. Further, the IC50 in series [2] (setting [4]) came out at 198 ± 16.8 µM. The IC50 in series [2] (setting [5]) stood at 22.7 ± 14.2 µM. In addition, the IC50 in series [2] (setting [6]) amounted to 4.06 ± 1.4 µM. In series [2] (setting [7]), the IC50 amounted to 8.82 ± 2 µM. Besides, the half-inhibitory concentration (IC50) in series [3] turned out to be 6.41 ± 2.9 µM.
